Reference: US5750545A, “Triazole derivative and pharmaceutical use thereof” (The Green Cross Corporation, priority 1993, dated 1998)

Key:
eosinophil = test: Eosinophilia-Inhibitory Activity (Sephadex G-200 induced, bronchovesicular washing); type: in vivo; conditions: Rattus norvegicus, ip, 168 h, rats, 30 mg/kg intraperitoneally 10 minutes prior to each Sephadex administration (day 0, 2, 5), eosinophils at 7th day
Description: Rats weighing 250°-350 g were used (5 per group). The test method was a partial modification of the method reported by B. A. Spicer et al (Br. J. Pharmacol (1990), 101, 821). Sephadex G-200 having a particle size of 40°-120 micron was suspended in isotonic saline at 0.5 mg/ml and boiled for 5 hours on the administration day to allow swelling. The suspension was administered to the rats from the tail vein by 1 ml at day 0, day 2 and day 5. At the 7th day from the initiation of the administration, the rats were anesthetized with 25% urethane (5 ml/kg) and fixed at a dorsal position. A cut down tube was inserted into trachea and applied with a three-way cock at its end. A 5 ml plastic syringe was set on one end of the three-way cock, a 5 ml plastic syringe containing 6 units/ml heparin-PBS (37° C.) was set on the other end and the liquid was injected. Using the empty 5 ml plastic syringe, the liquid was inserted or sucked out three times. This set of operations were repeated three times and the liquid obtained was preserved on ice as a bronchovesicular washing (ca 12 ml). The obtained washing was centrifuged [1000 rpm (150 g)×5 min, 4° C.] and the supernatant thereof was removed by decantation. The residue was re-suspended in 500 μl of RPMI-1640 medium. The total leukocytes in the suspension was counted by Colter counter (Sysmex, MICROCELLCOUNTER CC-120). Hinkelmann's Solution (900 μl), which is an eosinophil count reagent, was added to 100 μl of the re-suspension for staining (1:9), and the proportion of eosinophil count relative to the leukocyte count in one microscopic field was determined using an optical microscope (NIKON, BIOPHOT Type 104). The drug (test compound) was intraperitoneally administered in a dose of 30 mg/kg 10 minutes prior to the respective administration of Sephadex. The control group was administered with an isotonic saline containing 1% Tween 80 and 1% dimethyl sulfoxide instead of the drug.
Eosinophilia-inhibitory activity was calculated from the following formula.

T lymphocytes = test: Inhibitory action on T lymphocyte activation stimulated by concanavalin A ([3H]thymidine uptake); type: cell-based; conditions: mouse thymus T lymphocytes, 3 μg/ml concanavalin A, test drug 10 μM, read-out: growth-inhibitory activity, minus percentage figures relative to the control group (thymidine uptake)
Description: Inhibitory action on T lymphocyte activation stimulated by concanavalin A
The test was performed according to the method of Mishell, B. B. et al ["Cell Proliferation" in Selected Methods in Cellular Immunology, V, XXiX, W. H. Freeman Co., San Francisco, Calif. pp. 153-160, 1980].
T lymphocytes were isolated from mouse thymus by a conventional method and suspended in DMEM. The cells (5×10^6 cells/ml) were incubated at 37° C. for 12 hours in the presence of 3 μg/ml of concanavalin A. The test drug was added at 10 μM under these incubation conditions. After 12 hours of incubation, 2 μCi [3H]thymidine was added to each well and the well was incubated for 48 hours. After the incubation, the thymidine uptake was determined by a scintillation counter. The growth-inhibitory activity is shown in minus percentage figures relative to the figure of the control group.

| Structure (SMILES) | inhibition in vivo at 30 mg/kg (eosinophil) [%] | inhibition at 10 µM (T lymphocytes) [%] |
| --- | --- | --- |
| CNC(=S)n1ncnc1N [Compound A, 5-amino-1-[methylamino(thiocarbonyl)]-1H-1,2,4-triazole] | 88 |  |
| CNC(=S)n1nc(N)nc1N [Compound B, 3,5-diamino-1-[methylamino(thiocarbonyl)]-1H-1,2,4-triazole] | 53 |  |
| CNC(=S)n1nc(-c2ccc(C#N)cc2)nc1N [Compound C, 5-amino-3-(4-cyanophenyl)-1-[methylamino(thiocarbonyl)]-1H-1,2,4-triazole] | 87 |  |
| CNC(=S)n1nc(-c2ccc(Cl)cc2)nc1N [Compound D, 5-amino-3-(4-chlorophenyl)-1-[methylamino(thiocarbonyl)]-1H-1,2,4-triazole] | 87 | -52 |
| CNC(=S)n1nc(-c2ccc(OC)cc2)nc1N [Compound E, 5-amino-3-(4-methoxyphenyl)-1-[methylamino(thiocarbonyl)]-1H-1,2,4-triazole] | 70 |  |
| Cn1cnc2ncnn2c1=S [Compound F, 6-methyl-1,2,4-triazolo[1,5-a]-1,3,5-triazine-7(6H)-thione] | 58 |  |
| Cn1cnc2nc(-c3ccc(C#N)cc3)nn2c1=S [Compound G, 2-(4-cyanophenyl)-6-methyl-1,2,4-triazolo[1,5-a]-1,3,5-triazine-7(6H)-thione] | 79 |  |
| Cn1cnc2nc(-c3ccc(Cl)cc3)nn2c1=S [Compound H, 2-(4-chlorophenyl)-6-methyl-1,2,4-triazolo[1,5-a]-1,3,5-triazine-7(6H)-thione] | 83 | -60 |
| CNC(=S)n1nc(-c2cccc(Cl)c2)nc1N [Compound I, 5-amino-3-(3-chlorophenyl)-1-[methylamino(thiocarbonyl)]-1H-1,2,4-triazole] | 70 |  |
| CNC(=S)n1nc(-c2ccc(F)cc2)nc1N [Compound J, 5-amino-3-(4-fluorophenyl)-1-[methylamino(thiocarbonyl)]-1H-1,2,4-triazole] | 80 |  |
| CNC(=S)n1nc(-c2ccc(Br)cc2)nc1N [Compound K, 5-amino-3-(4-bromophenyl)-1-[methylamino(thiocarbonyl)]-1H-1,2,4-triazole] | 90 | -35 |
| CNC(=S)n1nc(-c2ccc(C(F)(F)F)cc2)nc1N [Compound L, 5-amino-1-[methylamino(thiocarbonyl)]-3-(4-trifluoromethylphenyl)-1H-1,2,4-triazole] | 88 | -37 |
| CNC(=S)n1nc(-c2ccc(-c3ccccc3)cc2)nc1N [Compound M, 5-amino-3-(4-phenylphenyl)-1-[methylamino(thiocarbonyl)]-1H-1,2,4-triazole] | 85 |  |
| CNC(=S)n1nc(-c2ccc(Cl)cc2Cl)nc1N [Compound N, 5-amino-3-(2,4-dichlorophenyl)-1-[methylamino(thiocarbonyl)]-1H-1,2,4-triazole] | 90 |  |
| CNC(=S)n1nc(-c2ccc(Cl)c(Cl)c2)nc1N [Compound O, 5-amino-3-(3,4-dichlorophenyl)-1-[methylamino(thiocarbonyl)]-1H-1,2,4-triazole] | 88 |  |
| CNC(=S)n1nc(-c2ccc(Cl)cc2OC)nc1N [Compound P, 5-amino-3-(4-chloro-2-methoxyphenyl)-1-[methylamino(thiocarbonyl)]-1H-1,2,4-triazole] | 85 |  |
| Cn1cnc2nc(-c3ccc(F)cc3)nn2c1=S [Compound Q, 2-(4-fluorophenyl)-6-methyl-1,2,4-triazolo[1,5-a]-1,3,5-triazine-7(6H)-thione] | 82 |  |
| Cn1cnc2nc(-c3ccc(Br)cc3)nn2c1=S [Compound R, 2-(4-bromophenyl)-6-methyl-1,2,4-triazolo[1,5-a]-1,3,5-triazine-7(6H)-thione] | 88 | -58 |
| Cn1cnc2nc(-c3ccc(C(F)(F)F)cc3)nn2c1=S [Compound S, 6-methyl-2-(4-trifluoromethylphenyl)-1,2,4-triazolo[1,5-a]-1,3,5-triazine-7(6H)-thione] | 89 | -36 |
| Cn1cnc2nc(-c3ccc(-c4ccccc4)cc3)nn2c1=S [Compound T, 6-methyl-2-(4-phenylphenyl)-1,2,4-triazolo[1,5-a]-1,3,5-triazine-7(6H)-thione] | 80 |  |
| Cn1cnc2nc(-c3ccc(Cl)cc3Cl)nn2c1=S [Compound U, 2-(2,4-dichlorophenyl)-6-methyl-1,2,4-triazolo[1,5-a]-1,3,5-triazine-7(6H)-thione] | 85 | -22 |
| Cn1cnc2nc(-c3ccc(Cl)c(Cl)c3)nn2c1=S [Compound V, 2-(3,4-dichlorophenyl)-6-methyl-1,2,4-triazolo[1,5-a]-1,3,5-triazine-7(6H)-thione] | 87 | -40 |
